Results as given in ChEMBL document CHEMBL1156193, “Discovery of a long-acting, peripherally selective inhibitor of catechol-O-methyltransferase” (2010).
The source made the active and inactive calls. No cut-off for these calls is given here.

Legend:
[1] = Cytotoxicity against mouse Neuro2a cells assessed as cell viability at 30 uM after 24 hrs; format: functional; conditions: N2a, read-out: Activity
Rattus norvegicus [2] = assay: Inhibition of COMT in po dosed Wistar rat liver homogenates assessed as metanephrine formation measured up to 3 hrs relative to control; format: functional
Rattus norvegicus [3] = assay: Inhibition of COMT in Wistar rat liver homogenates assessed as metanephrine formation at 3 mg/kg, po measured after 1 hr; format: functional, organism-based; set-up: dose 3 mg/kg
Rattus norvegicus [4] = assay: Inhibition of COMT in Wistar rat liver homogenates assessed as metanephrine formation at 3 mg/kg, po measured after 3 hrs; format: functional, organism-based; set-up: dose 3 mg/kg
Rattus norvegicus [5] = assay: Inhibition of central COMT in Wistar rat brain homogenates assessed as metanephrine formation at 3 mg/kg, po measured up to 24 hrs; format: functional, organism-based; set-up: dose 3 mg/kg
Rattus norvegicus [6] = assay: Inhibition of peripheral COMT in Wistar rat liver homogenates assessed as metanephrine formation at 3 mg/kg, po measured after 24 hrs; format: functional
Rattus norvegicus [7] = assay: Inhibition of peripheral COMT in Wistar rat brain homogenates assessed as metanephrine formation at 3 mg/kg, po measured after 24 hrs; format: functional; conditions: Liver, in the assay text read “rat liver homogenates” for “rat brain homogenates”
Rattus norvegicus [8] = assay: Inhibition of COMT in Wistar rat plasma assessed as increase L-DOPA level at 3 mg/kg, po co-administered with L-dopa and benserazide measured after 2 hrs by HPLC analysis; format: functional
Rattus norvegicus [9] = assay: Inhibition of COMT in Wistar rat plasma assessed as decrease in 3-O-methyl-L-Dopa level at 3 mg/kg, po co-administered with L-dopa and benserazide measured after 24 hrs by HPLC analysis; format: functional, organism-based; set-up: dose 3 mg/kg
Rattus norvegicus [10] = assay: Inhibition of COMT in Wistar rat plasma assessed as decrease in 3-O-methyl-L-Dopa level at 3 mg/kg, po co-administered with L-dopa and benserazide measured after 2 hrs by HPLC analysis relative to control; format: functional
Rattus norvegicus [11] = assay: Inhibition of central COMT in Wistar rat brain homogenates assessed as metanephrine formation at 3 mg/kg, po measured up to 24 hrs
Rattus norvegicus [12] = assay: Inhibition of COMT in Wistar rat liver homogenates assessed as metanephrine formation at 3 mg/kg, po measured after 3 hrs relative to control; values are per cent of control
Rattus norvegicus [13] = assay: Inhibition of COMT in Wistar rat brain homogenates assessed as metanephrine formation at 3 mg/kg, po measured after 1 hr; format: functional, organism-based; set-up: dose 3 mg/kg
Rattus norvegicus [14] = assay: Inhibition of COMT in Wistar rat brain homogenates assessed as metanephrine formation at 3 mg/kg, po measured after 3 hrs; format: functional, organism-based; set-up: dose 3 mg/kg
Rattus norvegicus [15] = assay: Inhibition of central COMT in Wistar rat liver homogenates assessed as metanephrine formation at 3 mg/kg, po measured after 9 hrs; format: functional; conditions: Brain, in the assay text read “rat brain homogenates” for “rat liver homogenates”
Rattus norvegicus [16] = assay: Inhibition of central COMT in Wistar rat brain homogenates assessed as metanephrine formation at 3 mg/kg, po measured after 9 hrs; format: functional
Rattus norvegicus [17] = assay: Inhibition of COMT in Wistar rat plasma assessed as increase L-DOPA level at 3 mg/kg, po co-administered with L-dopa and benserazide measured after 7 hrs by HPLC analysis; format: functional
Rattus norvegicus [18] = assay: Inhibition of COMT in Wistar rat plasma assessed as increase L-DOPA level at 3 mg/kg, po co-administered with L-dopa and benserazide measured after 24 hrs by HPLC analysis; format: functional, organism-based; set-up: dose 3 mg/kg
Rattus norvegicus [19] = assay: Inhibition of COMT in Wistar rat plasma assessed as decrease in 3-O-methyl-L-Dopa level at 3 mg/kg, po co-administered with L-dopa and benserazide measured after 2 hrs by HPLC analysis; format: functional, organism-based; set-up: dose 3 mg/kg
Rattus norvegicus [20] = assay: Inhibition of COMT in Wistar rat plasma assessed as decrease in 3-O-methyl-L-Dopa level at 3 mg/kg, po co-administered with L-dopa and benserazide measured after 7 hrs by HPLC analysis; format: functional, organism-based; set-up: dose 3 mg/kg
Rattus norvegicus [21] = organism: Rattus norvegicus; conditions: Wistar, Liver, 3 mg/kg
Rattus norvegicus [22] = assay: Inhibition of peripheral COMT in Wistar rat liver homogenates assessed as metanephrine formation at 3 mg/kg, po measured after 9 hrs
Mus musculus [23] = assay: Inhibition of COMT in NMRI mouse liver homogenates assessed as metanephrine formation at 3 mg/kg, po measured after 3 hrs relative to control; values are per cent of control
Mus musculus [24] = assay: Inhibition of COMT in NMRI mouse liver homogenates assessed as metanephrine formation at 30 mg/kg, po measured after 6 hrs relative to control; values are per cent of control

Cc1c(Cl)c(C)[n+]([O-])c(Cl)c1-c1noc(-c2cc(O)c(O)c([N+](=O)[O-])c2)n1 [OPICAPONE]
viability at 30 µM [1]: 86.6% | ED50 (Rattus norvegicus [2]): 1.05 mg/kg | inhibition (Rattus norvegicus [3]): Active | inhibition (Rattus norvegicus [4]): Active | inhibition (Rattus norvegicus [5]): inactive | inhibition in vivo at 3 mg/kg (Rattus norvegicus [6]): 50% | inhibition in vivo at 3 mg/kg (Rattus norvegicus [7]): 50% | fold change (FC) (Rattus norvegicus [8]): 2 | inhibition (Rattus norvegicus [9]): Active | inhibition in vivo at 3 mg/kg (Rattus norvegicus [10]): 50% | inhibition (Rattus norvegicus [11]): inactive | level, % of control at 3 mg/kg (Rattus norvegicus [12]): 0.7%

Cc1ccc(C(=O)c2cc(O)c(O)c([N+](=O)[O-])c2)cc1 [TOLCAPONE]
viability at 30 µM [1]: 27.2% | ED50 (Rattus norvegicus [2]): 1.77 mg/kg | Activity (Rattus norvegicus [3]): Active | inhibition (Rattus norvegicus [13]): Active | inhibition (Rattus norvegicus [4]): Active | inhibition (Rattus norvegicus [14]): Active | inhibition in vivo at 3 mg/kg (Rattus norvegicus [15]): 50% | inhibition in vivo at 3 mg/kg (Rattus norvegicus [16]): 50% | fold change (FC) (Rattus norvegicus [8]): 3 | fold change (FC) (Rattus norvegicus [17]): 2 | inhibition (Rattus norvegicus [18]): inactive | inhibition (Rattus norvegicus [19]): Active | inhibition (Rattus norvegicus [20]): Active | inhibition (Rattus norvegicus [21]): inactive | inhibition (Rattus norvegicus [22]): inactive | level, % of control at 3 mg/kg (Rattus norvegicus [12]): 23.8% | level, % of control at 3 mg/kg (Mus musculus [23]): 15.1% | level, % of control at 30 mg/kg (Mus musculus [24]): 6.8%
